# Read-outs that look alike come from different tables or passages of the source.
# Assays:
# [1] = cited from earlier work; for Log KOW value (may be estimate): common dyes, Table 1, values said to be known; for Log KOW value: drugs, reported by Scheytt et al. 2005; for Log KOW: source not stated
# [2] = Example 1: elimination of PRCs from PE passive sampling devices deployed 14 days in marine aquatic sediment; assay type: physicochemical; details: PE PSD at Station 6, marine sediment
# From the text: Twenty PSDs were created (each consisting of a 4×10 cm piece of PE). Ten of the PSDs were spiked with PCB-36 (which is not visibly detectable) and ten of the PSDs were spiked with Sudan III, a visibly detectable PRC within the scope of the present disclosure. The 20 spiked PSDs then were inserted in the top 10 cm of aquatic sediment at a marine (ocean) site by scuba divers at ten locations within a half-acre area. At each of the 10 locations, one PSD containing PCB-36 and one PSD containing Sudan III were deployed.
# After 14 days, the PSDs were collected by divers, brought to the surface, placed in a shipping container, and sent to a laboratory, where they were wiped with moistened tissues, placed in small vials, and extracted with solvent. […] The 13 solvents (from extraction of 10 exposed PSDs and 3 trip blanks PSDs) into which the PCB-36-spiked PSDs were extracted were then measured for PCBs using high-resolution gas chromatography/high-resolution mass spectrometry with an approximate 30- to 60-minute analysis time per sample. Via this analysis, the concentrations of PCB-36 in the 13 PCB-36-spiked PSDs were determined. […] Via this analysis, the concentration of Sudan III in the 13 Sudan III-spiked PSDs was determined. […]
# [3] = polyethylene-water partition coefficient (KPE) of PCBs according to Smedes et al.; assay type: physicochemical; details: Log10 of the cited KPE
# From the text: Assuming the KPE values are roughly similar (i.e., within 10%) between the dye and the analyte of interest, the dye could also be an appropriate PRC to use for other compounds. For example, given that KPE Sudan III KPE is 390,000 L/kg, Sudan III could be used as a PRC for compounds with KPE values from 350,000 L/kg to 430,000 L/kg.
# [4] = Example 2: hypothetical 28-day sediment deployment of PE PSD spiked with three dye PRCs; assay type: physicochemical; details: for Log10-transformed ke (hypothetical) / ke (hypothetical): PE PSD 28 days in sediment
# From the text: Two PSD could be created (each consisting of a 4×10 cm piece of PE).
# The KPE values of the 3 dyes are dissimilar to that of PCB-60, yet they may be used to provide a ke for PCB-60 according to the following approach. One PSD containing the three above dyes would be deployed into sediment for a period of 28 days, and the other PSD containing the three above dyes would be held in storage. Following retrieval of the PSD deployed in the sediment, both PSDs would be extracted in solvent (e.g., 50-mL mixture of hexane and methylene chloride). […] Concentrations of these dyes in the PE could be calculated assuming a known mass of each PE piece. The solvent extract of the PSD that had been exposed to the sediment for 28 days would be measured for PCBs using high-resolution gas chromatography/high-resolution mass spectrometry with an approximate 30- to 60-minute analysis time per sample. Via this analysis, the concentration of PCB-60 in the PSD that had been exposed to the sediment for 28 days could be determined.
# (§1) A linear regression model would then be estimated using the Log10 ke values as the dependent variable (y axis) and the Log10 KPE values as the independent variable […].
# FIG. 2 is a line graph showing this equation plotted as Log10 Ke (day-1) versus Log10 KPE (liters/kg/PE). […] By using the equation from the plot shown in FIG. 2, the predicted ke value of PCB-60 could be interpolated from its known KPE value.
# [5] = Example 7: elimination of dye PRCs from PE PSDs in jars of sediment and water agitated 14 days on a shaker table; assay type: physicochemical; details: PE PSD
# From the text: Two additional 3×3 cm PSDs were spiked with 10 unlabeled PCB PRCs that are not visibly detectable, but are routinely used as PRCs in passive sampling applications.
# The five jars containing the PSDs were closed and agitated for a period of 14 days on a shaker table. The other four dye-spiked PSDs and PCB-spiked PSD were held in storage. Following retrieval of the PSDs deployed in the sediment after 14 days, the PSDs were extracted in solvent (e.g., 50-mL mixture of hexane and methylene chloride). […] Concentrations of these dyes in the PE could be calculated assuming a known mass of each PE piece. The solvent extracts of the PSDs that had been exposed to the sediment for 14 days and held in storage for 14 days would be measured for PCBs using high-resolution gas chromatography/high-resolution mass spectrometry with an approximate 30- to 60-minute analysis time per sample.
# as §1
# [6] = Example 8: Sudan III elimination from PE PSDs, marine sediment versus agitated sediment, 14 days; assay type: physicochemical
# Procedure: Six 3×3 cm PSDs and fourteen 4×10 cm PSDs were spiked with Sudan III dye. Eleven of the larger (4×10 cm) PSDs were inserted in the top 10 cm of aquatic sediment at a marine (ocean) site by scuba divers at ten locations within a half-acre area. Three of the smaller (3×3 cm) PSDs were deployed into […] 8-oz jars containing approximately 100 g (wet weight) sediment and 150 mL water. The three jars containing the PSDs were closed and agitated for a period of 14 days on a shaker table. […] The solvents from the PSDs were analyzed on a benchtop UV/Vis spectrophotometer at wavelengths of 465 nm (to indicate the concentration of Sudan III in the solvent). Concentrations of these dyes in the PE could be calculated assuming a known mass of each PE piece.
# Using the average concentrations of Sudan III in the unexposed PSDs (to represent the t=0 concentration) and the concentration of Sudan III in the PSDs that had been exposed to the marine sediment and agitated sediment for 14 days (the time t concentrations), one could estimate the ke values using the equation provided in Example 1. […] Thus, the dye approach can be used to quantify the increase in sampling rates for various methods (i.e., unagitated deployments, various types of agitated deployments), and provides a low cost and efficient method compared to other PRCs.
compound,measurement,setting,value
COc1ccc(OC)c(N=Nc2c(O)ccc3ccccc23)c1 [Citrus Red 2],Log KOW value (may be estimate),[1],5.67
CC(C)(Oc1ccc(Cl)cc1)C(=O)O [Clofibric acid],Log KOW value,[1],2.88
O=C(O)Cc1ccccc1Nc1c(Cl)cccc1Cl [Diclofenac],Log KOW value,[1],1.9
CC(C)Cc1ccc(C(C)C(=O)O)cc1 (centres unmarked) [Ibuprofen],Log KOW value,[1],2.48
O=C1/C(=C2\Nc3ccccc3C2=O)Nc2ccccc21 [Indigo dye],Log KOW value (may be estimate),[1],3.7
Clc1cccc(-c2cc(Cl)cc(Cl)c2)c1 [PCB-36],elimination rate ke,[2],0.043 day⁻¹
Clc1ccc(-c2ccc(Cl)c(Cl)c2Cl)cc1 [PCB-60],Log10 KPE,[3],5.9 L/kg PE
same,estimated hypothetical ke interpolated from KPE,[4]; from regression of FIG. 2,0.028 day⁻¹
Cc1c(C(C)C)c(=O)n(-c2ccccc2)n1C [Propyphenazone],Log KOW value,[1],2.02
CCN(CC)c1ccc2c(-c3ccccc3C(=O)O)c3ccc(=[N+](CC)CC)cc-3oc2c1.[Cl-] [Rhodamine B],Log KOW,[1]; dye compounds of Table 2,1.8
Cc1ccc(Nc2ccc(O)c3c2C(=O)c2ccccc2C3=O)cc1 [Solvent Violet 13],Log10-transformed ke (hypothetical),[4],-1.7 day^−1
same,ke (hypothetical),[4],0.02 day⁻¹
same,ke,[5],0.16 day⁻¹
same,Log KOW,[1]; dye compounds of Table 2,6.2
same,Log KOW,[1]; dye compounds of Table 4,6.2
CC1(C)Nc2cccc3c(N=Nc4ccc(N=Nc5ccccc5)c5ccccc45)ccc(c23)N1 [Sudan Black B],Log10-transformed ke,[5],-3.1 log10(day^−1)
same,ke,[5],0.00072 day⁻¹
same,Log KOW,[1]; dye compounds of Table 4,8.8
Oc1ccc2ccccc2c1N=Nc1ccc(N=Nc2ccccc2)cc1 [Sudan III],elimination rate ke,[2],0.032 day⁻¹
same,Log10-transformed ke (hypothetical),[4],−1.4 day^−1
same,ke (hypothetical),[4],0.04 day⁻¹
same,ke,[5],0.046 day⁻¹
same,average ke,[6]; agitated sediment (shaker table),0.094 day⁻¹
same,average ke,[6]; marine sediment (unagitated),0.030 day⁻¹
same,Log KOW,[1]; dye compounds of Table 2,5.7
same,Log KOW,[1]; dye compounds of Table 4,5.7
Oc1ccc2ccccc2c1N=Nc1ccccc1 [Sudan I],Log KOW,[1]; dye compounds of Table 2,5.5
Oc1ccc(N=Nc2ccccc2)c(O)c1 [Sudan Orange G],Log10-transformed ke (hypothetical),[4],−0.1 day^−1
same,ke (hypothetical),[4],0.8 day⁻¹
same,ke,[5],0.41 day⁻¹
same,Log KOW,[1]; dye compounds of Table 2,3.9
same,Log KOW,[1]; dye compounds of Table 4,3.9

# — patent publication US20170115265A1, “Use of Visibly Detectable Compounds as Performance Reference Compounds in Passive Sampling Devices” (Geosyntec Consultants, Inc., priority 2015, published 2017)
